Test results reported in patent US20250230193A1, “CYCLIC COMPOUND HAVING SELECTIVE KRAS INHIBITORY EFFECT ON HRAS AND NRAS” (CHUGAI SEIYAKU KABUSHIKI KAISHA, priority 2022, published 2025).
Where a SMILES comes first, the peptide text is derived from it. Bridges are numbered along the chain shown (N, C = ends). [ ]: non-standard residue; d: D form. The star is where a group is joined. hPhe(3-Cl-4-CF3) = N[C@@H](CCc1ccc(C(F)(F)F)c(Cl)c1)C(=O)O; NPrPhe(4-CF3) = CCCN[C@@H](Cc1ccc(C(F)(F)F)cc1)C(=O)O; Piperazinyl(4-(3-oxetanyl)) = C1OCC1N1CCN(*)CC1; 3Oxa8azabicyclo(3.2.1)octane = C1CC2COCC1N2*; NMeGly(cPent) = CN[C@H](C(=O)O)C1CCCC1; Piperidide(4-Me) = CC1CCN(*)CC1; NMeD = CN[C@@H](CC(=O)O)C(=O)O; NMeL = CN[C@@H](CC(C)C)C(=O)O; Oxazolidin(3-yl) = C1CN(*)CO1; Azetidin(1-yl) = C1CN(*)C1; NMeA = CN[C@@H](C)C(=O)O; Piperidide = C1CCN(*)CC1; Pyrrolidide = C1CCN(*)C1; Ac5c = NC1(C(=O)O)CCCC1; Aze = O=C(O)[C@@H]1CCN1; X25 = CC1(C)CCN(*)C1; Sar = CNCC(=O)O

How the values were obtained:
[1] = biological target: GDP-bound NRAS wild-type protein (Homo sapiens, UniProt P01111); test: Binding to NRAS by surface plasmon resonance (SPR), Single Cycle Kinetics; settings: KD ratio NRAS/KRAS, SPR
[2] = biological target: GDP-bound HRAS wild-type protein (Homo sapiens, UniProt P01112); test: Binding to HRAS by surface plasmon resonance (SPR), Single Cycle Kinetics; settings: KD ratio HRAS/KRAS, SPR
GDP-bound HRAS wild-type protein, sequence (P01112 whole entry): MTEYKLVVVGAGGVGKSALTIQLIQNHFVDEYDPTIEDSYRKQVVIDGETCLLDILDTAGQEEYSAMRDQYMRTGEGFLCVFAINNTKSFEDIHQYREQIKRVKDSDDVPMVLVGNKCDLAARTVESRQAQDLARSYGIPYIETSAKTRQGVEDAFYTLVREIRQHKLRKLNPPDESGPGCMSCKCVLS

GDP-bound NRAS wild-type protein, sequence (P01111 whole entry): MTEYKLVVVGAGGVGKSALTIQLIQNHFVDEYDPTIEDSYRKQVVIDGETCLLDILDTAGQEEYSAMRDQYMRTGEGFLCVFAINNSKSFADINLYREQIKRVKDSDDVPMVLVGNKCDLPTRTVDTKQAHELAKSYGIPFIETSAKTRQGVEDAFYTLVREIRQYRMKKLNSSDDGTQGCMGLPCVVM

SMILES	NRAS/KRAS (ratio of KD for GDP-bound NRAS wild-type to KD for KRAS) [1]	HRAS/KRAS (ratio of KD for GDP-bound HRAS wild-type to KD for KRAS) [2]
CCCN1C(=O)CN(C)C(=O)CN(C)C(=O)[C@H]([C@@H](C)CC)NC(=O)[C@H](CC(C)C)N(C)C(=O)C[C@@H](C(=O)N2CCCC2)N(C)C(=O)[C@H](C2CCCC2)N(C)C(=O)C2(CCCC2)NC(=O)[C@@H]2CCCN2C(=O)[C@H](CCc2ccc(C(F)(F)F)c(Cl)c2)NC(=O)CN(C)C(=O)[C@@H]1Cc1ccc(C(F)(F)F)cc1 [PP0170] ([NMeL]I[Sar][Sar][NPrPhe(4-CF3)][Sar][hPhe(3-Cl-4-CF3)]P[Ac5c][NMeGly(cPent)][NMeD]-Pyrrolidide; lactam N-11)	B (a compound having 3 or more and less than 10 is denoted as B)	B (a compound having 3 or more and less than 10 is denoted as B)
CCCN1C(=O)CN(C)C(=O)CN(C)C(=O)[C@H]([C@@H](C)CC)NC(=O)[C@H](CC(C)C)N(C)C(=O)C[C@@H](C(=O)N2CCCCC2)N(C)C(=O)[C@H](C2CCCC2)N(C)C(=O)C2(CCCC2)NC(=O)[C@@H]2CCCN2C(=O)[C@H](CCc2ccc(C(F)(F)F)c(Cl)c2)NC(=O)CN(C)C(=O)[C@@H]1Cc1ccc(C(F)(F)F)cc1 [PP0171] ([NMeL]I[Sar][Sar][NPrPhe(4-CF3)][Sar][hPhe(3-Cl-4-CF3)]P[Ac5c][NMeGly(cPent)][NMeD]-Piperidide; lactam N-11)	B (a compound having 3 or more and less than 10 is denoted as B)	C (A compound having a KD ratio of 0.1 or more and less than 3 is denoted as C)
CCCN1C(=O)CN(C)C(=O)CN(C)C(=O)[C@H]([C@@H](C)CC)NC(=O)[C@H](CC(C)C)N(C)C(=O)C[C@@H](C(=O)N2CCC2)N(C)C(=O)[C@H](C2CCCC2)N(C)C(=O)C2(CCCC2)NC(=O)[C@@H]2CCCN2C(=O)[C@H](CCc2ccc(C(F)(F)F)c(Cl)c2)NC(=O)CN(C)C(=O)[C@@H]1Cc1ccc(C(F)(F)F)cc1 [PP0172] ([NMeL]I[Sar][Sar][NPrPhe(4-CF3)][Sar][hPhe(3-Cl-4-CF3)]P[Ac5c][NMeGly(cPent)][NMeD]-{Azetidin(1-yl)}; lactam N-11)	B (a compound having 3 or more and less than 10 is denoted as B)	C (A compound having a KD ratio of 0.1 or more and less than 3 is denoted as C)
CCCN1C(=O)CN(C)C(=O)CN(C)C(=O)[C@H]([C@@H](C)CC)NC(=O)[C@H](CC(C)C)N(C)C(=O)C[C@@H](C(=O)N2C3CCC2COC3)N(C)C(=O)[C@H](C2CCCC2)N(C)C(=O)C2(CCCC2)NC(=O)[C@@H]2CCCN2C(=O)[C@H](CCc2ccc(C(F)(F)F)c(Cl)c2)NC(=O)CN(C)C(=O)[C@@H]1Cc1ccc(C(F)(F)F)cc1 [PP0173] ([NMeL]I[Sar][Sar][NPrPhe(4-CF3)][Sar][hPhe(3-Cl-4-CF3)]P[Ac5c][NMeGly(cPent)][NMeD]-{3Oxa8azabicyclo(3.2.1)octane}; lactam N-11)	B (a compound having 3 or more and less than 10 is denoted as B)	C (A compound having a KD ratio of 0.1 or more and less than 3 is denoted as C)
CCCN1C(=O)CN(C)C(=O)CN(C)C(=O)[C@H]([C@@H](C)CC)NC(=O)[C@H](CC(C)C)N(C)C(=O)C[C@@H](C(=O)N2CCOC2)N(C)C(=O)[C@H](C2CCCC2)N(C)C(=O)C2(CCCC2)NC(=O)[C@@H]2CCCN2C(=O)[C@H](CCc2ccc(C(F)(F)F)c(Cl)c2)NC(=O)CN(C)C(=O)[C@@H]1Cc1ccc(C(F)(F)F)cc1 [PP0174] ([NMeL]I[Sar][Sar][NPrPhe(4-CF3)][Sar][hPhe(3-Cl-4-CF3)]P[Ac5c][NMeGly(cPent)][NMeD]-{Oxazolidin(3-yl)}; lactam N-11)	B (a compound having 3 or more and less than 10 is denoted as B)	B (a compound having 3 or more and less than 10 is denoted as B)
CCCN1C(=O)CN(C)C(=O)CN(C)C(=O)[C@H]([C@@H](C)CC)NC(=O)[C@H](CC(C)C)N(C)C(=O)C[C@@H](C(=O)N2CCN(C3COC3)CC2)N(C)C(=O)[C@H](C2CCCC2)N(C)C(=O)C2(CCCC2)NC(=O)[C@@H]2CCCN2C(=O)[C@H](CCc2ccc(C(F)(F)F)c(Cl)c2)NC(=O)CN(C)C(=O)[C@@H]1Cc1ccc(C(F)(F)F)cc1 [PP0175] ([NMeL]I[Sar][Sar][NPrPhe(4-CF3)][Sar][hPhe(3-Cl-4-CF3)]P[Ac5c][NMeGly(cPent)][NMeD]-{Piperazinyl(4-(3-oxetanyl))}; lactam N-11)	B (a compound having 3 or more and less than 10 is denoted as B)	B (a compound having 3 or more and less than 10 is denoted as B)
CCCN1C(=O)CN(C)C(=O)CN(C)C(=O)[C@H]([C@@H](C)CC)NC(=O)[C@H](CC(C)C)N(C)C(=O)C[C@@H](C(=O)N2CCC(C)CC2)N(C)C(=O)[C@H](C2CCCC2)N(C)C(=O)C2(CCCC2)NC(=O)[C@@H]2CCCN2C(=O)[C@H](CCc2ccc(C(F)(F)F)c(Cl)c2)NC(=O)CN(C)C(=O)[C@@H]1Cc1ccc(C(F)(F)F)cc1 [PP0176] ([NMeL]I[Sar][Sar][NPrPhe(4-CF3)][Sar][hPhe(3-Cl-4-CF3)]P[Ac5c][NMeGly(cPent)][NMeD]-{Piperidide(4-Me)}; lactam N-11)	B (a compound having 3 or more and less than 10 is denoted as B)	C (A compound having a KD ratio of 0.1 or more and less than 3 is denoted as C)
CCCN1C(=O)CN(C)C(=O)CN(C)C(=O)[C@H]([C@@H](C)CC)NC(=O)[C@H](CC(C)C)N(C)C(=O)C[C@@H](C(=O)N2CCC(C)(C)C2)N(C)C(=O)[C@H](C2CCCC2)N(C)C(=O)C2(CCCC2)NC(=O)[C@@H]2CCCN2C(=O)[C@H](CCc2ccc(C(F)(F)F)c(Cl)c2)NC(=O)CN(C)C(=O)[C@@H]1Cc1ccc(C(F)(F)F)cc1 [PP0177] ([NMeL]I[Sar][Sar][NPrPhe(4-CF3)][Sar][hPhe(3-Cl-4-CF3)]P[Ac5c][NMeGly(cPent)][NMeD]-X25; lactam N-11)	B (a compound having 3 or more and less than 10 is denoted as B)	C (A compound having a KD ratio of 0.1 or more and less than 3 is denoted as C)
CCCN1C(=O)[C@@H]2CCN2C(=O)[C@H](C)N(C)C(=O)[C@H]([C@@H](C)CC)NC(=O)[C@H](CC(C)C)N(C)C(=O)C[C@@H](C(=O)N(C)C)N(C)C(=O)[C@H](C2CCCC2)N(C)C(=O)C2(CCCC2)NC(=O)[C@@H]2CCCN2C(=O)[C@H](CCc2ccc(C(F)(F)F)c(Cl)c2)NC(=O)CN(C)C(=O)[C@@H]1Cc1ccc(C(F)(F)F)cc1 [PP0178] ([NMeL]I[NMeA][Aze][NPrPhe(4-CF3)][Sar][hPhe(3-Cl-4-CF3)]P[Ac5c][NMeGly(cPent)][NMeD]-NMe2; lactam N-11)	C (A compound having a KD ratio of 0.1 or more and less than 3 is denoted as C)	B (a compound having 3 or more and less than 10 is denoted as B)
CCCN1C(=O)[C@@H]2CCN2C(=O)[C@H](C)N(C)C(=O)[C@H]([C@@H](C)CC)NC(=O)[C@H](CC(C)C)N(C)C(=O)C[C@@H](C(=O)N2CCCC2)N(C)C(=O)[C@H](C2CCCC2)N(C)C(=O)C2(CCCC2)NC(=O)[C@@H]2CCCN2C(=O)[C@H](CCc2ccc(C(F)(F)F)c(Cl)c2)NC(=O)CN(C)C(=O)[C@@H]1Cc1ccc(C(F)(F)F)cc1 [PP0179] ([NMeL]I[NMeA][Aze][NPrPhe(4-CF3)][Sar][hPhe(3-Cl-4-CF3)]P[Ac5c][NMeGly(cPent)][NMeD]-Pyrrolidide; lactam N-11)	C (A compound having a KD ratio of 0.1 or more and less than 3 is denoted as C)	B (a compound having 3 or more and less than 10 is denoted as B)
CCCN1C(=O)[C@@H]2CCN2C(=O)[C@H](C)N(C)C(=O)[C@H]([C@@H](C)CC)NC(=O)[C@H](CC(C)C)N(C)C(=O)C[C@@H](C(=O)N2CCCCC2)N(C)C(=O)[C@H](C2CCCC2)N(C)C(=O)C2(CCCC2)NC(=O)[C@@H]2CCCN2C(=O)[C@H](CCc2ccc(C(F)(F)F)c(Cl)c2)NC(=O)CN(C)C(=O)[C@@H]1Cc1ccc(C(F)(F)F)cc1 [PP0180] ([NMeL]I[NMeA][Aze][NPrPhe(4-CF3)][Sar][hPhe(3-Cl-4-CF3)]P[Ac5c][NMeGly(cPent)][NMeD]-Piperidide; lactam N-11)	C (A compound having a KD ratio of 0.1 or more and less than 3 is denoted as C)	C (A compound having a KD ratio of 0.1 or more and less than 3 is denoted as C)
CCCN1C(=O)[C@@H]2CCN2C(=O)[C@H](C)N(C)C(=O)[C@H]([C@@H](C)CC)NC(=O)[C@H](CC(C)C)N(C)C(=O)C[C@@H](C(=O)N2CCC2)N(C)C(=O)[C@H](C2CCCC2)N(C)C(=O)C2(CCCC2)NC(=O)[C@@H]2CCCN2C(=O)[C@H](CCc2ccc(C(F)(F)F)c(Cl)c2)NC(=O)CN(C)C(=O)[C@@H]1Cc1ccc(C(F)(F)F)cc1 [PP0181] ([NMeL]I[NMeA][Aze][NPrPhe(4-CF3)][Sar][hPhe(3-Cl-4-CF3)]P[Ac5c][NMeGly(cPent)][NMeD]-{Azetidin(1-yl)}; lactam N-11)	C (A compound having a KD ratio of 0.1 or more and less than 3 is denoted as C)	B (a compound having 3 or more and less than 10 is denoted as B)
CCCN1C(=O)[C@@H]2CCN2C(=O)[C@H](C)N(C)C(=O)[C@H]([C@@H](C)CC)NC(=O)[C@H](CC(C)C)N(C)C(=O)C[C@@H](C(=O)N2C3CCC2COC3)N(C)C(=O)[C@H](C2CCCC2)N(C)C(=O)C2(CCCC2)NC(=O)[C@@H]2CCCN2C(=O)[C@H](CCc2ccc(C(F)(F)F)c(Cl)c2)NC(=O)CN(C)C(=O)[C@@H]1Cc1ccc(C(F)(F)F)cc1 [PP0182] ([NMeL]I[NMeA][Aze][NPrPhe(4-CF3)][Sar][hPhe(3-Cl-4-CF3)]P[Ac5c][NMeGly(cPent)][NMeD]-{3Oxa8azabicyclo(3.2.1)octane}; lactam N-11)	C (A compound having a KD ratio of 0.1 or more and less than 3 is denoted as C)	B (a compound having 3 or more and less than 10 is denoted as B)
